From publication PMC7366380, “Discovery of a Potent and Selective Covalent Inhibitor and Activity-Based Probe for the Deubiquitylating Enzyme UCHL1, with Antifibrotic Activity” (Journal of the American Chemical Society, 2020)
One block for each compound: values may come before it.

Key:
USP16 = USP16 (Homo sapiens, UniProt Q9Y5T5); test: biochemical
UCHL1 [1] = target: T1, UCHL1 (Homo sapiens, UniProt P09936); settings: compared with 1
T1 sequence (P09936 1-223): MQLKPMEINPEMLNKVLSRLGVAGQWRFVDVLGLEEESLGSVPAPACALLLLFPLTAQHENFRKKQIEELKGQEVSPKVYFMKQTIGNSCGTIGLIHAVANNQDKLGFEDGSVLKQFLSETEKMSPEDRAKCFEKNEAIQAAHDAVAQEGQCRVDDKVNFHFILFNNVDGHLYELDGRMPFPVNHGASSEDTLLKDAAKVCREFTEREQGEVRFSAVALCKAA

UCHL1 [2] = target: T1, UCHL1; test: Competitive ABPP against ABP 2 in HEK293 cells, in-gel fluorescence and pulldown/UCHL1 immunoblot; format: cell-based; set-up: rapidly targets endogenous UCHL1 in cells; endogenous in cells; host or cells: HEK293; settings: HEK293, compound 1 h, then 2 (20 nM) 10 min
UCHL1 [3] = target: T1, UCHL1; test: UCHL1 covalent adduct determination by LC-ESI-MS; format: binding; set-up: (residues 1-223, Uniprot P09936); GST (N, cleaved yes); made in house; host or cells: E. coli Rosetta 2(DE3), pGEX-6P-1; settings: UCHL1 5 μM, compound 13 μM, 60 min
Experimental: values were plotted against compound concentration to afford the apparent second order rate constant for inhibition, ka/I. The absolute value of the second order rate constant kobs/I was […]
Reversible inhibition assay: Jump dilution assays were performed by incubating UCHL1 […]
negative controls (iodoacetamide (IAA) 10 mM) for 30 min at room temperature. The reaction […]
intensity read immediately for 1 h.
UCHL1 covalent adduct determination […]
pH 7.5) was incubated with compound 1, 2 (2.5 equiv.) or DMSO for 1 h at room temperature.
The excess ligand was removed by washing with buffer D in an Amicon® Ultra MWCO 10 kDa centrifugation spin filter three times. The protein-adducts were desalted using 3× SDB-XC polystyrene-divinylbenzene copolymer extraction disks, following published methods.5 Samples were eluted with 50% (v/v) MeCN 0.5% (v/v) formic acid in LC-MS grade water and analyzed by LC-ESI (ACQUITY UPLC H-Class PLUS instrument (Waters)) using an ACQUITY UPLC BEH C4 column (Waters) coupled with Waters LCT Premier MS detector.
UCHL1 covalent adduct site identification […]
The MS data was analyzed by PEAKS Studio 8.5 (Bioinformatics Solutions Inc.). […]
Homogeneous time resolved fluorescence (HTRF) assay […]
BME) and incubated for 30 min at room temperature. […] The plates were sealed and incubated overnight at 4 °C then read using a PHERAstar (BMG), and the Delta F calculated: […]

[4] = tested on: HEK293 cells whole proteome; test: Whole proteome analysis (no enrichment) of HEK293 cells treated with ABP 2, TMT; format: cell-based, human
endogenous UCHL1 = target: T2, endogenous UCHL1 (Homo sapiens, UniProt P09936); test: ABP 2 target engagement in EA.hy926 and A549 cells (in-gel fluorescence, immunoblot); format: cell-based; settings: 3 h
T2 construct: endogenous in cells; host or cells: EA.hy926 and A549
Excerpt: Figure S13. ABP 2 target engagement in A549 and EA.hy926 cells. […]
labeled proteins ligated to AzTB capture reagent. (a) Labeled proteins were separated by SDS-PAGE and visualised by in-gel fluorescence. (b) Labeled proteins were enriched by NeutrAvidin magnetic beads. Total lysate (TL), supernatant (SN) an d pulldown (PD) samples […]
Preparation of UCHL1 overexpression cell lysates
After cell lysis and CuAAC […]
relative to the sample volume.
SDS-PAGE and in-gel fluorescence imaging
The protein samples were separated
Biotin affinity enrichment for immunoblot analysis […]
re-suspended as described previously.
Proteins were separated by SDS-
Sample preparation for MS-based proteomic analysis

[5] = tested on: FLAG-UCHL1 (WT, C90A, C90S); settings: HeLa cells overexpressing FLAG-UCHL1, 1 h
[6] = tested on: UCHL3, UCHL5, and DUBs from other families; test: ABP 2 labeling in HEK293 cells, pulldown and immunoblotting of other DUBs; settings: HEK293, 1 h, pulldown, immunoblot
[7] = whole proteome, no enrichment, HEK293, 0.02 μM vs DMSO, 1 h
[8] = whole proteome, no enrichment, HEK293, 0.2 μM vs DMSO, 1 h
[9] = whole proteome, no enrichment, HEK293, 2 μM vs DMSO, 1 h

Sequence of USP16 (Q9Y5T5 whole entry, species assumed): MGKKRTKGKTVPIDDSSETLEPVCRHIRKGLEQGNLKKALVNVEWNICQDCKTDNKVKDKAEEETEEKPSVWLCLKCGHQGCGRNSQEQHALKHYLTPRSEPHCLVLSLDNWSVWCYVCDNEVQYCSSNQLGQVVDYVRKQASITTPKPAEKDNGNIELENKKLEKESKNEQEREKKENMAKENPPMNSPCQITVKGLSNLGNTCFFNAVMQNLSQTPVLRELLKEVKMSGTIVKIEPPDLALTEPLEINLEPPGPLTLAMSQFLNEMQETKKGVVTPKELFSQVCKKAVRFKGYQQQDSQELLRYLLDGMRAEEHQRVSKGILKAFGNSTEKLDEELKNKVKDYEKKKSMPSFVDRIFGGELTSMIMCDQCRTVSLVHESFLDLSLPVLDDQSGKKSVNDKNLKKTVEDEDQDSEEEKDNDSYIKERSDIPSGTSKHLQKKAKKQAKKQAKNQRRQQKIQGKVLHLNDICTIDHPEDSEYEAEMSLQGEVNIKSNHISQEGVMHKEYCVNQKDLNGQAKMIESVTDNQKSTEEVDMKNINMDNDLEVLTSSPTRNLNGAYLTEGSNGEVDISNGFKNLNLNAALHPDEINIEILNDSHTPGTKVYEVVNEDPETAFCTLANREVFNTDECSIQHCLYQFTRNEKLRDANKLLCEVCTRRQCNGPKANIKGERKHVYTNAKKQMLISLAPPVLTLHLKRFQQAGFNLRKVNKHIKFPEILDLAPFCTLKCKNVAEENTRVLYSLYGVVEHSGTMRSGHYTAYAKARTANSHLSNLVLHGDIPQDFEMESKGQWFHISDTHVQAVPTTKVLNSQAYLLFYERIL

Compound: CC(=O)O/N=C1\C(=O)N(Cc2cc(Cl)ccc2Cl)c2ccc(Cl)cc21 [LDN-57444, reference compound]
IC50 (USP16): > 10 µM

fold less active than 1 (UCHL1 FP assay) (UCHL1 [1]): > 1000 fold | competition for UCHL1 labeling by ABP 2 (immunoblot) (UCHL1 [2]): no competition
Compound: N#CN1CCC[C@@H]1C(=O)N1CCc2c(-c3c[nH]c4ncccc34)cccc21 [Compound 3]

IC50 (USP16): > 10 µM | competition for UCHL1 labeling by ABP 2 (immunoblot) (UCHL1 [2]): dose-dependent UCHL1 labeling reduction | covalent modification of UCHL1 by LC-ESI-MS (UCHL1 [3]): single modification
Compound: N#CN1CCC[C@H]1C(=O)N1CCc2c(-c3c[nH]c4ncccc34)cccc21 [Compound 1]

profiling of endogenous UCHL1 activity in other cell types (endogenous UCHL1): excellent selectivity | covalent modification of UCHL1 by LC-ESI-MS (UCHL1 [3]): single modification
Compound: C#Cc1cnc2[nH]cc(-c3cccc4c3CCN4C(=O)[C@@H]3CCCN3C#N)c2c1 [Compound 2]
abundance change in whole proteome analysis ([4]; HEK293, 20, 200 or 2000 nM, 60 min): No significant abundance change | Log2 t-test Difference, AAAS, ABP 2 -0.02 μM [4, 7]: 0.04017 | Log2 t-test Difference, AACS, ABP 2 -0.02 μM [4, 7]: -0.01983 | Log2 t-test Difference, AAGAB, ABP 2 -0.02 μM [4, 7]: 0.05728 | Log2 t-test Difference, AAMP, ABP 2 -0.02 μM [4, 7]: -0.03986 | Log2 t-test Difference, AAAS, ABP 2 -0.2 μM [4, 8]: -0.001777 | Log2 t-test Difference, AACS, ABP 2 -0.2 μM [4, 8]: 0.03866 | Log2 t-test Difference, AAGAB, ABP 2 -0.2 μM [4, 8]: 0.002598 | Log2 t-test Difference, AAMP, ABP 2 -0.2 μM [4, 8]: 0.04194 | Log2 t-test Difference, AAAS, ABP 2 -2 μM [4, 9]: 0.07218 | Log2 t-test Difference, AACS, ABP 2 -2 μM [4, 9]: 0.09255 | Log2 t-test Difference, AAGAB, ABP 2 -2 μM [4, 9]: 0.1494 | Log2 t-test Difference, AAMP, ABP 2 -2 μM [4, 9]: -0.01217 | labeling of WT versus C90A/C90S UCHL1 [5]: only WT UCHL1 is labeled | labeling of UCHL3, UCHL5, and DUBs from other families [6]: minimal or no detectable labeling
